Results as given in paper PMC9147192, “Small Molecule Arranged Thermal Proximity Coaggregation (smarTPCA)—A Novel Approach to Characterize Protein–Protein Interactions in Living Cells by Similar Isothermal Dose–Responses” (International Journal of Molecular Sciences, 2022).

Legend:
RARS = target: T1, RARS (Homo sapiens, UniProt P54136); assay: TPP-CCR in living HL-60 cells; type: cell-based
T1 construct: endogenous in cells; host or cells: HL-60 (ATCC CCL-240)
T1 sequence (P54136 1-660): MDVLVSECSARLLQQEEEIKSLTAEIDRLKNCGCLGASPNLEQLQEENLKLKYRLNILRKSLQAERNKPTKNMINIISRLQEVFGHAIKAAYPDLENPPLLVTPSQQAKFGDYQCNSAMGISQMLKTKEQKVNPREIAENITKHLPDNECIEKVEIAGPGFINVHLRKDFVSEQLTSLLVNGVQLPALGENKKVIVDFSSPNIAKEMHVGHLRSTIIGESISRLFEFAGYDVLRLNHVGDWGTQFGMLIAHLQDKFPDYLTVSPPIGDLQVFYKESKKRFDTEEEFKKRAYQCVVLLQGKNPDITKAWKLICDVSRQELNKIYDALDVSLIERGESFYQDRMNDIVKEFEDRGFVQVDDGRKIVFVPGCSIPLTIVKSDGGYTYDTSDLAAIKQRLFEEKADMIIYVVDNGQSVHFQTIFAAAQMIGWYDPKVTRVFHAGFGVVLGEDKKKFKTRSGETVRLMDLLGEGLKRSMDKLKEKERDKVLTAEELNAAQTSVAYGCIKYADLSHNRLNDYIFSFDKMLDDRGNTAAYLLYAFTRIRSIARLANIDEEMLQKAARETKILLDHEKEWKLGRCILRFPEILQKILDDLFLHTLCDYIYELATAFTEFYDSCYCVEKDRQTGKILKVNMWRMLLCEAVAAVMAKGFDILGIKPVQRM

SCO1 = target: T2, SCO1 (Homo sapiens, UniProt O75880); assay: TPP-CCR in living HL-60 cells; type: cell-based
T2 construct: endogenous in cells; host or cells: HL-60 (ATCC CCL-240)
T2 sequence (O75880 68-301): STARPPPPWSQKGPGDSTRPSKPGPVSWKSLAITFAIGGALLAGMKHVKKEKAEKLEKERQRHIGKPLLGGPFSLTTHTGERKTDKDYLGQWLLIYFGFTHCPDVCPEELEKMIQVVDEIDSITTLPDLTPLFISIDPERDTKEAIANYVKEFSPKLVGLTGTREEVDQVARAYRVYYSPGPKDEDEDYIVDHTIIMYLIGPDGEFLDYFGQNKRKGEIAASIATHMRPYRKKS

[1] = living HL-60 cells, […] °C, TMT-MS

**Q.** With `Cc1cnc(Nc2ccc(F)cc2Cl)nc1-c1c[nH]c(C(=O)N[C@H](CO)c2cccc(Cl)c2)c1` [ERK 11e] as the molecule, how does the Hill slope (RARS; TPP-CCR, living cells, RARS) read?
**A.** 0.38

**Q.** What about the EC50 (RARS; [1]) of the same molecule?
**A.** 83.2 nM

**Q.** What about the “Hill slope (RARS)” value (RARS; [1]) of the same molecule?
**A.** 0.38

**Q.** And the Hill slope (SCO1; TPP-CCR, living cells, SCO1)?
**A.** 1.25

**Q.** And the “Hill slope (SCO1)” value (SCO1; [1])?
**A.** 1.25

**Q.** What about the EC50 (SCO1; living HL-60 cells, […] °C, TMT-MS, read-out: pEC50 (SCO1) (converted)) of the same molecule?
**A.** 2820 nM
